From publication PMC7391726, “Fatty acid mimetic PBI-4547 restores metabolic homeostasis via GPR84 in mice with non-alcoholic fatty liver disease” (Scientific Reports, 2020) come the findings set out here.

In test [1] the target is T1, PPARδ (Homo sapiens, UniProt Q03181).
T1 construct: glutathione S-transferase (GST)-tagged human PPAR-LBD; purchased Fisher Scientific
T1 sequence (Q03181 211-439 limits assumed): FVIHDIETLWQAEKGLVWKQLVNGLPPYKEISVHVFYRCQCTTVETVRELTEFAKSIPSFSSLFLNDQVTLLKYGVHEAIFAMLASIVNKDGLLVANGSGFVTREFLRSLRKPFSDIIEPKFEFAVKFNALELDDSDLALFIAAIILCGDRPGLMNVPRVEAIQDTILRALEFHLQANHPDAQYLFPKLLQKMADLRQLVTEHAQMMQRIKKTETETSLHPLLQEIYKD
Kind of test: LanthaScreen TR-FRET competitive binding assay, PPARδ LBD. The conditions noted are these: Cheng-Prusoff; read-out: Ki inhibition constant, PPARδ LBD. An excerpt: The peroxisome proliferator-activated receptors (PPARs), PPARα, PPARδ, and PPARγ are ligand-dependent transcription factors regulated by FAs, including MCFAs, which control expression of several key metabolism-associated genes. We thus characterized the binding and transcriptional activity of PBI-4547 to these receptors. A LanthaScreen TR-FRET competitive binding assay was used to determine the binding affinity of PBI-4547 in comparison to the full control agonists GW7647 (PPARα), GW0742 (PPARδ), and rosiglitazone (PPARγ).
The LanthaScreen time-resolved fluorescence resonance energy transfer (TR-FRET) PPARα, PPARδ and PPARγ competitive binding assay (Fisher Scientific) was performed according to the manufacturer’s protocol. […] The FRET signal was measured using an Infinite M1000 microplate reader by excitation at 332 nm and emission at 520 nm for fluorescein and 490 nm for terbium. Competitive ligand binding to PPAR is detected by a test compound’s ability to displace the Fluormone pan-PPAR Green from the LBD, which results in a decrease of the 520 nm/490 nm TR-FRET ratio. The inhibition constant (Ki) of the competitor ligand was calculated by applying the Cheng-Prusoff equation.

Test [2] deals with CCl4 mouse. Briefly: Carbon tetrachloride (CCl4)-induced liver fibrosis. Format: in vivo. The source says: Since fibrosis contributes directly to the progression from NAFLD to NASH, we next evaluated the effect of PBI-4547 pro-fibrotic gene expression. […] Pro-inflammatory genes were not modulated by treatment with PBI-4547. […] As liver fibrosis was relatively mild in HFD-fed mice, we performed separate studies to evaluate the antifibrotic effect of PBI-4547, in rodent models of carbon tetrachloride (CCl4)- and bile duct ligation (BDL)-induced liver fibrosis.

In test [3] the target is T2, PPARδ (Homo sapiens, UniProt Q03181).
T2 construct: PPARδ (S139–Y440); expressed in transfected cells; host or cells: HEK293
T2 sequence (Q03181 139-441 limits assumed): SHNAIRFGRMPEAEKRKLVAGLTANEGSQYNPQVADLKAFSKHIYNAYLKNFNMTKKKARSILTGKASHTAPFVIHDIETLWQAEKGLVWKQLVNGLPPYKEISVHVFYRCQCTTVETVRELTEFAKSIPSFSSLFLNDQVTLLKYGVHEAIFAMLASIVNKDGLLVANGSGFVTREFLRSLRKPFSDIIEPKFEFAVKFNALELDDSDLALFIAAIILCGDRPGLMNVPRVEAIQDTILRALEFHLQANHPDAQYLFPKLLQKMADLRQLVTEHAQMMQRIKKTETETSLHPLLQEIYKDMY
Kind of test: Cell-based GAL4 transactivation assay in HEK293 cells, PPARδ LBD. To be noted: compared to the control agonist GW0742. An excerpt: To determine the transcriptional activity of PBI-4547, a cell-based GAL4 transactivation assay in HEK293 cells transfected with either PPARα, PPARδ, or PPARγ LBD was used. […] However, PBI-4547 only partially activated PPARγ transcriptional activity, with a relative maximal efficacy of 38% of the control agonist rosiglitazone.
Generation of the Gαi2, Gαq, and GPR40/β-arrestin-2 BRET biosensors have been described previously. A plasmid encoding the human GPR120-L (long isoform) cDNA was obtained from R&D Systems. GPR120-S (short isoform) was generated by replacing the BglII-BsgI fragment from GPR120-L by a gBlock gene fragment (Integrated DNA Technologies, Coralville, IA) lacking the DNA sequence corresponding to the extra 16 amino acids found in the third intracellular loop of the long form. The GPR120-GFP10 construct was generated by inserting PCR-amplified GPR120-S (without its stop codon) in place of GPR40 in the GPR40-GFP10 plasmid. […]
HEK293 cells were co-transfected with pGL4.35[luc2P/9XGAL4UAS/Hygro] and GAL4-PPAR-Rluc plasmids, and after 24 h of incubation were treated with compounds for 24 h. Luciferase activity was determined with the Dual Glo luciferase assay (Promega). Firefly luminescence was normalized to the constitutively expressed Renilla luminescence, and results expressed as fold induction of vehicle control.

In test [4] the test system is ob/ob mice. Kind of test: ob/ob leptin-deficient genetic mouse model of metabolic syndrome. The format is in vivo. An excerpt:
We next sought to confirm our above findings obtained from the diet-induced model of obesity by using the ob/ob leptin-deficient genetic mouse model of metabolic syndrome. […] Additionally, the mRNA expression profiles of glucose- and FA-related genes in liver (Fig. S4D,E) and WAT (Fig. S5) also differed between pioglitazone- and PBI-4547-treated mice.

The structures appear in SMILES notation.

In the case of `CCCCCc1cc(CCCCC)cc(CC(=O)[O-])c1.[Na+]` [PBI-4547, 2-[3,5-dipentylphenyl]acetate sodium salt], the Ki (commonly a measure of affinity in units of concentration, obtained from inhibition or displacement) in test [1] came out at 3.16 µM. Further, the liver collagen deposition entry in test [2] is “significantly decreased”. Further, the PPARδ transcriptional activity entry in test [3] was “very weak”. In addition, in test [4], the bodyweight result is “significantly reduced” and the “prevention of clinical manifestations of fatty liver disease (liver histology)” value is on record as “more effective than pioglitazone”.
